Read-outs that look alike come from different tables or passages of the source. A value given as a limit tells only on which side of the number the result lay.

The record followed here is patent publication US11986532B2 (Arvinas Operations, Inc., priority 2021, dated 2024).

In this experiment the target is T1, BCL6 (Homo sapiens, UniProt P41182).
T1 construct: endogenous in cells; host or cells: T47D breast cancer epithelial cells
The experiment in a line: Immunofluorescence protocol for high content imaging of BCL6 (degradation) in T47D cells, 3 days compound treatment. Type of experiment: cell-based. Conditions: for DC50: read-out: Mean DC50 (nM)* category; for Dmax: read-out: Mean Dmax (%)** category. Summed up: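 Read-out: high-content imaging of anti-BCL6 immunofluorescence (Alexa-488 secondary) with CellMask and Hoechst counterstains, 10×, 4 fields/well. Cells had 3 days of compound exposure at 37° C, 5% CO2, 11-point 3-fold series from a final top of 0.1 or 1 μM.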

Where [1] appears, read: T47D cells, 3 days compound treatment.

Consider `CNC(=O)COc1cc2cc(Nc3nc(N4CCC(CN5CC6(CCN(c7ccc8c(c7)C(=O)N(C7CCC(=O)NC7=O)C8=O)CC6(F)F)C5)CC4)ncc3Cl)ccc2n(C(C)C)c1=O` (stereo not drawn) [Compound 135, 2-{[6-({5-chloro-2-[4-({7-[2-(2,6-dioxopiperidin-3-yl)-1,3-dioxo-2,3-dihydro-1H-isoindol-5-yl]-5,5-difluoro-2,7-diazaspiro[3.5]nonan-2-yl}methyl)piperidin-1-yl]pyrimidin-4-yl}amino)-2-oxo-1-(propan-2-yl)-1,2-dihydroquinolin-3-yl]oxy}-N-methylacetamide], for which, under setting [1], the half-maximal degradation concentration (DC50) was below 10 nM and the Dmax was 50 to 70%.

Regarding `CNC(=O)COc1cc2cc(Nc3nc(N4CCC(O[C@H]5C[C@H](N6C[C@@H](C)N(c7ccc8c(c7)CN(C7CCC(=O)NC7=O)C8=O)[C@H](C)C6)C5)CC4)ncc3Cl)ccc2n(C(C)C)c1=O` (relative stereo) [Compound 179, 2-({6-[(5-chloro-2-{4-[(1r,3r)-3-[(3R*,5R*)-4-[2-(2,6-dioxopiperidin-3-yl)-1-oxo-2,3-dihydro-1H-isoindol-5-yl]-3,5-dimethylpiperazin-1-yl]cyclobutoxy]piperidin-1-yl}pyrimidin-4-yl)amino]-2-oxo-1-(propan-2-yl)-1,2-dihydroquinolin-3-yl}oxy)-N-methylacetamide], under setting [1], the DC50 was below 10 nM and the Dmax was at least 70%.

Take `CNC(=O)COc1cc2cc(Nc3nc(C)ncc3Cl)ccc2n(CCOc2ccc3c(c2)C(=O)N(C2CCC(=O)NC2=O)C3=O)c1=O` (stereo not drawn) [Compound 147, 2-({6-[(5-chloro-2-methylpyrimidin-4-yl)amino]-1-(2-{[2-(2,6-dioxopiperidin-3-yl)-1,3-dioxo-2,3-dihydro-1H-isoindol-5-yl]oxy}ethyl)-2-oxo-1,2-dihydroquinolin-3-yl}oxy)-N-methylacetamide]: under setting [1], the 50% degradation concentration (DC50) is below 10 nM.

As to `CNC(=O)COc1cc2cc(Nc3nc(N4CCC[C@H](COc5cccc6c5C(=O)N(C5CCC(=O)NC5=O)C6=O)C4)ncc3Cl)ccc2n(CCN(C)C)c1=O` (stereo partly drawn) [Compound 141, 2-{[6-({5-chloro-2-[(3S)-3-({[2-(2,6-dioxopiperidin-3-yl)-1,3-dioxo-2,3-dihydro-1H-isoindol-4-yl]oxy}methyl)piperidin-1-yl]pyrimidin-4-yl}amino)-1-[2-(dimethylamino)ethyl]-2-oxo-1,2-dihydroquinolin-3-yl]oxy}-N-methylacetamide], the DC50 under setting [1] was at least 100 nM.

Consider `CNC(=O)COc1cc2cc(Nc3nc(N4CCC(OC5CCC(N6CCC(c7cccc8c7C(=O)N(C7CCC(=O)NC7=O)C8=O)CC6)C5)CC4)ncc3Cl)ccc2n(C(C)C)c1=O` (stereo not drawn) [Compound 148, 2-({6-[(5-chloro-2-{4-[(3-{4-[2-(2,6-dioxopiperidin-3-yl)-1,3-dioxo-2,3-dihydro-1H-isoindol-4-yl]piperidin-1-yl}cyclopentyl)oxy]piperidin-1-yl}pyrimidin-4-yl)amino]-2-oxo-1-(propan-2-yl)-1,2-dihydroquinolin-3-yl}oxy)-N-methylacetamide], for which, under setting [1], the DC50 lay in the range of 50 to 100 nM and the Dmax is below 50%.

For `CNC(=O)COc1cc2cc(Nc3nc(N4CCN(CC5CCN(c6cc(F)cc7c6CN(C6CCC(=O)NC6=O)C7=O)CC5)CC4)ncc3Cl)ccc2n(C(C)C)c1=O` (stereo not drawn) [Compound 105, 2-{[6-({5-chloro-2-[4-({1-[2-(2,6-dioxopiperidin-3-yl)-6-fluoro-1-oxo-2,3-dihydro-1H-isoindol-4-yl]piperidin-4-yl}methyl)piperazin-1-yl]pyrimidin-4-yl}amino)-2-oxo-1-(propan-2-yl)-1,2-dihydroquinolin-3-yl]oxy}-N-methylacetamide], under setting [1], the DC50 was below 10 nM and the Dmax is 50 to 70%.

Turning to `CNC(=O)COc1cc2cc(Nc3nc(N4CCC(CN5[C@@H](C)CC6(C[C@@H]5C)CN(c5ccc7c(c5)C(=O)N(C5CCC(=O)NC5=O)C7=O)C6)CC4)ncc3Cl)ccc2n(C(C)C)c1=O` (stereo partly drawn) [Compound 255, 2-[(6-{[5-chloro-2-(4-{[(6S,8S)-2-[2-(2,6-dioxopiperidin-3-yl)-1,3-dioxo-2,3-dihydro-1H-isoindol-5-yl]-6,8-dimethyl-2,7-diazaspiro[3.5]nonan-7-yl]methyl}piperidin-1-yl)pyrimidin-4-yl]amino}-2-oxo-1-(propan-2-yl)-1,2-dihydroquinolin-3-yl)oxy]-N-methylacetamide], the DC50 is below 10 nM. The Dmax (T47D) was in the range of 50 to 70%.

With `CNC(=O)COc1cc2cc(Nc3nc(N4CCC(O[C@H]5C[C@H](N6CC[C@@H](c7ccc8c(c7F)CN([C@H]7CCC(=O)NC7=O)C8=O)C[C@@H]6C)C5)CC4)ncc3Cl)ccc2n(C(C)C)c1=O` [Compound 292, 2-({6-[(5-chloro-2-{4-[(1r,3r)-3-[(2S,4R)-4-{2-[(3S)-2,6-dioxopiperidin-3-yl]-4-fluoro-1-oxo-2,3-dihydro-1H-isoindol-5-yl}-2-methylpiperidin-1-yl]cyclobutoxy]piperidin-1-yl}pyrimidin-4-yl)amino]-2-oxo-1-(propan-2-yl)-1,2-dihydroquinolin-3-yl}oxy)-N-methylacetamide], the DC50 was below 10 nM. For the setting “T47D”, the Dmax is at least 70%.

Turning to `CNC(=O)COc1cc2cc(Nc3nc(N4CCC(O[C@H]5C[C@H](N6C[C@@H](C)N(c7ccc8c(c7C)C(=O)N(C7CCC(=O)NC7=O)C8=O)C[C@@H]6C)C5)CC4)ncc3Cl)ccc2n(C(C)C)c1=O` (stereo partly drawn) [Compound 207, 2-({6-[(5-chloro-2-{4-[(1r,3r)-3-[(2S,5R)-4-[2-(2,6-dioxopiperidin-3-yl)-4-methyl-1,3-dioxo-2,3-dihydro-1H-isoindol-5-yl]-2,5-dimethylpiperazin-1-yl]cyclobutoxy]piperidin-1-yl}pyrimidin-4-yl)amino]-2-oxo-1-(propan-2-yl)-1,2-dihydroquinolin-3-yl}oxy)-N-methylacetamide], under setting [1], the DC50 was below 10 nM and the Dmax is at least 70%.

For the compound `CNC(=O)COc1cc2cc(Nc3cc(N4CCC(CN5CCC6(CN(c7ccc8c(c7OC)CN(C7CCC(=O)NC7=O)C8=O)C6)C(F)(F)C5)CC4)ncc3Cl)ccc2n(C(C)C)c1=O` (stereo not drawn) [Compound 232, 2-{[6-({5-chloro-2-[4-({2-[2-(2,6-dioxopiperidin-3-yl)-4-methoxy-1-oxo-2,3-dihydro-1H-isoindol-5-yl]-5,5-difluoro-2,7-diazaspiro[3.5]nonan-7-yl}methyl)piperidin-1-yl]pyridin-4-yl}amino)-2-oxo-1-(propan-2-yl)-1,2-dihydroquinolin-3-yl]oxy}-N-methylacetamide], the DC50 was below 10 nM.

For `CNC(=O)COc1cc2cc(Nc3nc(N4CCC(O[C@H]5C[C@H](N6CCN(c7cc(F)c(F)c8c7C(=O)N(C7CCC(=O)NC7=O)C8)CC6)C5)CC4)ncc3Cl)ccc2n(C(C)C)c1=O` (stereo partly drawn) [Compound 274, 2-({6-[(5-chloro-2-{4-[(1r,3r)-3-{4-[2-(2,6-dioxopiperidin-3-yl)-6,7-difluoro-3-oxo-2,3-dihydro-1H-isoindol-4-yl]piperazin-1-yl}cyclobutoxy]piperidin-1-yl}pyrimidin-4-yl)amino]-2-oxo-1-(propan-2-yl)-1,2-dihydroquinolin-3-yl}oxy)-N-methylacetamide], the half-maximal degradation concentration (DC50) was 10 to 50 nM. Besides, the Dmax (T47D) was below 50%.

Consider `CNC(=O)COc1cc2cc(Nc3nc(N4CCC(CN5CCC6(CN(c7ccc8c(c7)C(=O)N(C7CCC(=O)NC7=O)C8=O)C6)C(F)(F)C5)CC4)ncc3Cl)ccc2n(C)c1=O` (stereo not drawn) [Compound 127, 2-{[6-({5-chloro-2-[4-({2-[2-(2,6-dioxopiperidin-3-yl)-1,3-dioxo-2,3-dihydro-1H-isoindol-5-yl]-5,5-difluoro-2,7-diazaspiro[3.5]nonan-7-yl}methyl)piperidin-1-yl]pyrimidin-4-yl}amino)-1-methyl-2-oxo-1,2-dihydroquinolin-3-yl]oxy}-N-methylacetamide], for which, under setting [1], the DC50 was below 10 nM and the Dmax was below 50%.

As for `CNC(=O)COc1cc2cc(Nc3nc(N4CCC(CN5CC6(CCN(c7ccc8c(c7OC)CN(C7CCC(=O)NC7=O)C8=O)CC6)C5)CC4)ncc3Cl)ccc2n(C(C)C)c1=O` (stereo not drawn) [Compound 88, 2-{[6-({5-chloro-2-[4-({7-[2-(2,6-dioxopiperidin-3-yl)-4-methoxy-1-oxo-2,3-dihydro-1H-isoindol-5-yl]-2,7-diazaspiro[3.5]nonan-2-yl}methyl)piperidin-1-yl]pyrimidin-4-yl}amino)-2-oxo-1-(propan-2-yl)-1,2-dihydroquinolin-3-yl]oxy}-N-methylacetamide], under setting [1], the DC50 is below 10 nM and the greatest degradation seen (Dmax) was below 50%.

As for `CNC(=O)COc1cc2cc(Nc3nc(N4CCC(O[C@H]5C[C@H](N6CCC(c7ccc8c(c7OC)CN(C7CCC(=O)NC7=O)C8=O)CC6)C5)CC4)ncc3Cl)ccc2n(C(C)C)c1=O` (stereo partly drawn) [Compound 72, 2-[[6-[[5-chloro-2-[4-[3-[4-[2-(2,6-dioxo-3-piperidyl)-4-methoxy-1-oxo-isoindolin-5-yl]-1-piperidyl]cyclobutoxy]-1-piperidyl]pyrimidin-4-yl]amino]-1-isopropyl-2-oxo-3-quinolyl]oxy]-N-methyl-acetamide], under setting [1], the DC50 was below 10 nM and the Dmax fell in the range of 50 to 70%.

Regarding `CNC(=O)COc1cc2cc(Nc3nc(N4CCC(F)(CN5CCC6(CC5)CCN(c5c(F)ccc7c5C(=O)N(C5CCC(=O)NC5=O)C7)CC6)CC4)ncc3Cl)ccc2n(C(C)C)c1=O` (stereo not drawn) [Compound 93, 2-{[6-({5-chloro-2-[4-({9-[2-(2,6-dioxopiperidin-3-yl)-5-fluoro-3-oxo-2,3-dihydro-1H-isoindol-4-yl]-3,9-diazaspiro [5.5]undecan-3-yl}methyl)-4-fluoropiperidin-1-yl]pyrimidin-4-yl}amino)-2-oxo-1-(propan-2-yl)-1,2-dihydroquinolin-3-yl]oxy}-N-methylacetamide], under setting [1], the 50% degradation concentration (DC50) was at least 100 nM and the Dmax was at least 70%.
